In US11440913B2, “Aminoimidazopyridazines as kinase inhibitors” (BRISTOL-MYERS SQUIBB COMPANY, priority 2017, dated 2022):
Counter-ions that a name gives are not always drawn. Like-named read-outs stand apart in the source and are kept apart here.

Tests used:
[1] = tested on: MLKL phosphorylation in HT29-L23 human colorectal adenocarcinoma cells; experiment: MLKL Phosphorylation High-Content Assay; assay type: cell-based; conditions: necroptosis induced with TNFα, SMAC mimetic and Z-VAD, 6 h, read-out: pMLKL (IC50)
Protocol: MLKL Phosphorylation High-Content Assay
HT29-L23 human colorectal adenocarcinoma cells were maintained in RPMI 1640 medium containing 10% heat-inactivated FBS, 1% Pennicilin-Streptomycin and 10 mM HEPES. Cells were seeded at 2,000 cells/well in 384 w tissue culture-treated microplates (Greiner #781090-3B) and incubated at 37° C. (5% CO2/95% O2) for two days. On the day of assay, the cells were treated with test compounds at final concentrations of 6.25 to 0.106 μM for 30 min at 37° C. (5% CO2/95% O2). Necroptopsis was induced using a mixture of human TNFα (35 ng/mL) (Peprotech #300-01A), SMAC mimetic (from US 2015/0322111 A1) (700 nM) and Z-VAD (140 nM) (BD pharmingen #51-6936). Following six hours incubation at 37° C. (5% CO2/95% O2), the cells were fixed with 4% formaldedye (ACROS 11969-0010) for 15 min at room temperature and then permeabilized with phoshpate buffered saline (PBS) containing 0.2% Triton-X-100 for 10 min. MLKL phosporylation was detected using anti-MLKL (phospho S358) antibody (Abcam # ab187091) (1:1000 dilution in Blocking Buffer [PBS supplemented with 0.1% BSA]) with overnight incubation at 4° C. After washing three times in PBS, goat anti-rabbit Alexa-488 (1:1000 dilution) (Life Technologies, A11008) and Hoechst 33342 (Life Technologies, H3570) (1:2000 dilution) in Blocking Buffer were added for 1 h at room temperature. Following another three cycles of washes in PBS, the microplates were sealed, and cellular images were acquired in the Cellomics ArrayScan VTI high-content imager equipped with an X1 camera. Fluorescent images were taken using a 10× objective and the 386-23 BGRFRN_BGRFRN and 485-20 BGRFRN_BGRFRN filter sets, for nuclei and MLKL phosphorylation, respectively. The image sets were analyzed using the Compartmental Analysis Bioapplication software (Cellomics). The level of MLKL phosphorylation was quantified as MEAN_CircRingAvgIntenRatio. […] The IC50 value was defined as the concentration of compound that produces 50% of the maximal inhibition. The data were fitted using the 4-parameter logistic equation to calculate the IC50 and Ymax values.

[2] = biological target: His-GST-TVMV-hRIPK1(1-324) (Homo sapiens (Human), UniProt Q13546); experiment: RIPK1 HTRF Binding Assay; conditions: HTRF binding, 1 h at rt; read-out: RIPK1 (IC50)
Protocol: A solution was prepared containing 0.2 nM Anti GST-Tb (Cisbio, 61GSTTLB), 90.6 nM probe and 1 nM His-GST-TVMV-hRIPK1(1-324) in FRET Buffer (20 mM HEPES, 10 mM MgCl2, 0.015% Brij-35, 4 mM DTT, 0.05 mg/mL BSA). Using Formulatrix Tempest, the detection antibody/enzyme/probe solution ([…]) was dispensed into wells of a 1536 plate (Black Low Binding Polystyrene 1536 Plate (Corning, 3724)) containing 10 nL of compounds of interest at appropriate concentration in DMSO. The plate was incubated at rt for 1 h. FRET was measured using the EnVision plate reader (Excitation: 340 nm, Emission: 520 nm/[…]). Total signal (0% inhibition) was calculated from wells containing 10 nL DMSO only.
The coding region of human RIPK1(1-324) flanked by NdeI site at 5′ end and stop codon TGA and XhoI site at 3′ end was codon optimized and gene synthesized at GenScript USA Inc. (Piscataway, N.J.) and subcloned into a modified pFastBacl vector (Invitrogen, Carlsbad, Calif.) with N-terminal His-GST-TVMV tag, to generate His-GST-TVMV-hRIPK1(1-324)-pFB. The fidelity of the synthetic fragment was confirmed by sequencing.

Sequence of His-GST-TVMV-hRIPK1(1-324) (Q13546 1-324): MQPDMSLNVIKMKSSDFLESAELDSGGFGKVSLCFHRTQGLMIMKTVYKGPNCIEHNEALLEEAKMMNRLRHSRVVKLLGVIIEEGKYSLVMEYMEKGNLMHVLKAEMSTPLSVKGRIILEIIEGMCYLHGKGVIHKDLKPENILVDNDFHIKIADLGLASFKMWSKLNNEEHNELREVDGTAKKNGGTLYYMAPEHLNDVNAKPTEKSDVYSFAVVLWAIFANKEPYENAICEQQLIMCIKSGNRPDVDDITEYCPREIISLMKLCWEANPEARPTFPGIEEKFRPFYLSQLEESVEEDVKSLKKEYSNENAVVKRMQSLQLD

Row | Compound | IC50 [1] [nM] | IC50 [2] [nM] | IC50 ([1]; Homo sapiens) [nM]
1 | COc1ncc(-c2ccc3nc(NC(C)=O)cn3n2)cc1C(=O)NCc1cc(F)cc(F)c1OCC1CC1 [Example 121, N-({2-[cyclopropyl(deutero)methoxy]-3,5-difluorophenyl}methyl)-5-{2-acetamidoimidazo[1,2-b]pyridazin-6-yl}-2-methoxypyridine-3-carboxamide] | 9 | 3 | –
2 | COc1nc(C)c(-c2ccc3nc(NC(C)=O)cn3n2)cc1C(=O)NCc1ccccc1OC(C)C1CCCC1 (centres unmarked) [Example 303, N-{[2-(1-cyclopentylethoxy)phenyl]methyl}-5-{2-acetamidoimidazo[1,2-b]pyridazin-6-yl}-2-methoxy-6-methylpyridine-3-carboxamide] | 43 | 22 | –
3 | COc1ncc(-c2ccc3nc(NC(C)=O)cn3n2)cc1C(=O)NC(C)c1cccc(OC(F)(F)F)c1 (centres unmarked) [Example 125, 5-{2-acetamidoimidazo[1,2-b]pyridazin-6-yl}-2-methoxy-N-{1-[3-(trifluoro-methoxy)phenyl]ethyl}pyridine-3-carboxamide] | 153 | 34 | –
4 | COc1ncc(-c2ccc3nc(NC(C)=O)cn3n2)cc1C(=O)NCc1cc(F)cc(OC(F)(F)F)c1 [Example 138, 5-{2-acetamidoimidazo[1,2-b]pyridazin-6-yl}-N-{[3-fluoro-5-(trifluoromethoxy)phenyl]methyl}-2-methoxypyridine-3-carboxamide] | – | 13 | 72
5 | COc1ncc(-c2ccc3nc(NC(C)=O)cn3n2)cc1C(=O)N[C@H](C)c1cccc(OC(F)(F)F)c1 [Example 112, 5-{2-acetamidoimidazo[1,2-b]pyridazin-6-yl}-2-methoxy-N-[(1R)-1-[3-(trifluoromethoxy)phenyl](2,2,2-deutero)ethyl]pyridine-3-carboxamide] | 73 | 17 | –
6 | CC(=O)Nc1cn2nc(-c3cnc(C)c(C(=O)NCC(C)(O)Cc4ccc(F)cc4)c3)ccc2n1 (centres unmarked) [Example 356, 5-{2-acetamidoimidazo[1,2-b]pyridazin-6-yl}-N-[3-(4-fluorophenyl)-2-hydroxy-2-methylpropyl]-2-methylpyridine-3-carboxamide] | – | 150 | 485
7 | 5-{2-acetamidoimidazo[1,2-b]pyridazin- 6-yl}-N-{[2-fluoro-5- (trifluoromethoxy)phenyl]- (deutero)methyl}-2-methoxy-6- methylpyridine-3-carboxamide [Example 282] | 8 | 10 | –
8 | CC(=O)Nc1cn2nc(-c3ccc(Cl)c(C(=O)NCc4ccc(OC(F)(F)F)cc4)c3F)ccc2n1 [Example 391, 6-chloro-3-{2-acetamidoimidazo [1,2-b]pyridazin-6-yl}-2-fluoro-N-{[4-(trifluoromethoxy)phenyl]methyl} benzamide] | – | 105 | 274
9 | COc1nc(C)c(-c2ccc3nc(NC(C)=O)cn3n2)cc1C(=O)NC(C)c1cc(C(F)(F)F)ccc1F (centres unmarked) [Example 277, 5-{2-acetamidoimidazo[1,2-b]pyridazin-6-yl}-N-{1-[2-fluoro-5-(trifluoromethyl)phenyl]ethyl}-2-methoxy-6-methylpyridine-3-carboxamide] | 263 | 107 | –
10 | N-{[3,5-difluoro-2-(oxan-3- yloxy)phenyl]methyl}-5-{2- acetamidoimidazo[1,2-b]pyridazin- 6-yl}-2-(deutero)methoxy-6- methylpyridine-3-carboxamide [Example 170] | 3 | 4 | –
11 | CNCC(=O)Nc1cn2nc(-c3cnc(C)c(C(=O)N[C@H](C)c4cc(OC(F)(F)F)ccc4F)c3)ccc2n1 [Example 340, N-[(1R)-1-[2-fluoro-5-(trifluoromethoxy)-phenyl]ethyl]-2-methyl-5-{2-[2-(methylamino)-acetamido]imidazo [1,2-b]pyridazin-6-yl}pyridine-3-carboxamide] | – | 67 | 258
12 | CC(=O)Nc1cn2nc(-c3cnc(C(F)(F)F)c(C(=O)NCc4c(F)ccc(F)c4OCC4CC4)c3)ccc2n1 [Example 31, N-{[2-(cyclopropylmethoxy)-3,6-difluorophenyl]methyl}-5-{2-acetamidoimidazo[1,2-b]pyridazin-6-yl}-2-(trifluoromethyl)pyridine-3-carboxamide] | – | 82 | 339
13 | COc1ncc(-c2ccc3nc(NC(C)=O)c(C)n3n2)cc1C(=O)NCCC(C)c1ccccc1 (centres unmarked) [Example 256, 5-{2-acetamido-3-methylimidazo[1,2-b]pyridazin-6-yl}-2-methoxy-N-(3-phenylbutyl)pyridine-3-carboxamide, TFA] | – | 9 | 27
14 | CC(=O)Nc1cn2nc(-c3cc(C(=O)NCc4cc(F)cc(F)c4OCC4CC4)c(C)nc3C)ccc2n1 [Example 87, N-{[2-(cyclopropylmethoxy)-3,5-difluorophenyl]methyl}-5-{2-acetamidoimidazo[1,2-b]pyridazin-6-yl}-2,6-dimethylpyridine-3-carboxamide] | – | 3 | 3
15 | CCC(=O)Nc1cn2nc(-c3cnc(OC)c(C(=O)NCc4cc(OCC5CC5)ccc4F)c3)ccc2n1 [Example 250, N-{[5-(cyclopropylmethoxy)-2-fluorophenyl]methyl}-2-methoxy-5-{2-propanamidoimidazo[1,2-b]pyridazin-6-yl}pyridine-3-carboxamide] | – | 18 | 61
16 | CC(=O)Nc1cn2nc(-c3ccc(Cl)c(C(=O)N[C@H](C)c4cc(OC(F)(F)F)ccc4F)c3F)ccc2n1 [Example 388, 6-chloro-3-{2-acetamidoimidazo [1,2-b]pyridazin-6-yl}-2-fluoro-N-[(1R)-1-[2-fluoro-5-(trifluoromethoxy)phenyl]ethyl] benzamide] | – | 7 | 2
17 | 3-{2- acetamidoimidazo [1,2-b]pyridazin- 6-yl}-2-fluoro- N-{[2-fluoro-5- (trifluoromethoxy) phenyl] (Â^2Hâ,,)methyl} benzamide [Example 430] | 9 | 3 | –
18 | CC(=O)Nc1cn2nc(-c3cncc(C(=O)NCc4cc(OCC5CC5)ccc4F)c3)ccc2n1 [Example 236, N-{[5-(cyclopropylmethoxy)-2-fluorophenyl]methyl}-5-{2-acetamidoimidazo[1,2-b]pyridazin-6-yl}pyridine-3-carboxamide] | – | 95 | 180
19 | COc1ncc(-c2ccc3nc(NC(C)=O)cn3n2)cc1C(=O)NCc1ccccc1COC(C)C [Example 114, 5-{2-acetamidoimidazo[1,2-b]pyridazin-6-yl}-2-methoxy-N-({2-[(propan-2-yloxy)methyl]phenyl}meth-yl)pyridine-3-carboxamide, TFA] | 33 | 8 | –
20 | COc1ccc(-c2ccc3nc(NC(C)=O)cn3n2)c(F)c1C(=O)NCc1cc(F)ccc1C(=O)N1CCC(F)(F)C1 [Example 376] | – | 9 | 9
21 | CC(=O)Nc1cn2nc(-c3cc(C(=O)NCC[C@H](O)c4ccc(Cl)cc4)c(C)nc3C)ccc2n1 [Example 82, N-[(3S)-3-(4-chlorophenyl)-3-hydroxypropyl]-5-{2-acetamidoimidazo[1,2-b]pyridazin-6-yl}-2,6-dimethylpyridine-3-carboxamide] | – | 21 | 18
22 | CC(=O)Nc1cn2nc(-c3cc(C(=O)NCc4cc(C(F)(F)F)cc(Cl)c4F)c(C)cc3C)ccc2n1 [Example 384, N-{[3-chloro-2-fluoro-5-(trifluoromethyl)phenyl]methyl}-5-{2-acetamidoimidazo [1,2-b]pyridazin-6-yl}-2,4-dimethylbenzamide] | – | 48 | 99
